Measured values: US20240343681A1, “MOLECULES HAVING PESTICIDAL UTILITY AND INTERMEDIATES AND PROCESSES RELATED THERETO” (priority 2021, published 2024)

What was measured:
[1] = tested on: Yellow Fever Mosquito (Aedes aegypti, AEDSAE) larvae; test: Bioassay on yellow fever mosquito (YFM), 96-well plate larval assay; type: in vivo; settings: 4000 ppm (master plate solution), about 1 day-old larvae, 3 days
Experimental: Example B: Bioassays on Yellow Fever Mosquito (Aedes aegypti, AEDSAE) (“YFM”)
Master plates containing 400 μg of a molecule dissolved in 100 μL of dimethyl sulfoxide (DMSO) (equivalent to a 4000 ppm solution) are used. A master plate of assembled molecules contains 15 μL per well. To this plate, 135 μL of a 90:10 water/acetone mixture is added to each well. A robot (Biomek® NXP Laboratory Automation Workstation) is programmed to dispense 15 μL aspirations from the master plate into an empty 96-well shallow plate (“daughter” plate). There are 6 reps (“daughter” plates) created per master. The created “daughter” plates are then immediately infested with YFM larvae.
The day before plates are to be treated, mosquito eggs are placed in Millipore water containing liver powder to begin hatching (4 g into 400 mL). After the “daughter” plates are created using the robot, they are infested with 220 μL of the liver powder/larval mosquito mixture (about 1 day-old larvae). After plates are infested with mosquito larvae, a non-evaporative lid is used to cover the plate to reduce drying. Plates are held at room temperature for 3 days prior to grading. After 3 days, each well is observed and scored based on mortality.

[2] = tested on: Beet Armyworm (Spodoptera exigua, LAPHEG) second instar larva; test: Bioassay on beet armyworm (BAW), 128-well diet tray assay; type: in vivo; settings: 50 μg/cm^2 on artificial diet, 25° C., five days
How it was run: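 Test molecule in 90:10 acetone–water applied at 50 μg/cm^2 onto 1 mL artificial diet and dried; one second-instar larva per well, eight wells. Held 5 days at 25 °C, 14:10 light–dark; percent mortality averaged over the eight wells.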

O=C(Nc1cc(NC(=O)[C@H]2[C@H](c3cc(Cl)cc(Cl)c3)C2(Cl)Cl)ccc1Cl)c1ccc(F)c(C(F)(F)F)c1 (racemic) [F83, trans-rac-N-(2-Chloro-5-(2,2-dichloro-3-(3,5-dichlorophenyl)cyclopropane-1-carboxamido)phenyl)-4-fluoro-3-(trifluoromethyl)benzamide]
activity against YFM (scored based on mortality) [1]: exhibited activity | activity against BAW (percent mortality, averaged over eight wells) [2]: exhibited activity

COc1cccc(C(=O)Nc2cc(NC(=O)[C@H]3[C@H](c4cc(Cl)cc(Cl)c4)C3(Cl)Cl)ccc2Cl)c1 (racemic) [F84, trans-rac-N-(2-Chloro-5-(2,2-dichloro-3-(3,5-dichlorophenyl)cyclopropane-1-carboxamido)phenyl)-3-methoxybenzamide]
activity against YFM (scored based on mortality) [1]: exhibited activity | activity against BAW (percent mortality, averaged over eight wells) [2]: exhibited activity

COc1ccc(C(=O)Nc2cc(NC(=O)[C@H]3[C@H](c4cc(Cl)cc(Cl)c4)C3(Cl)Cl)ccc2Cl)cc1 (racemic) [F85, trans-rac-N-(2-Chloro-5-(2,2-dichloro-3-(3,5-dichlorophenyl)cyclopropane-1-carboxamido)phenyl)-4-methoxybenzamide]
activity against YFM (scored based on mortality) [1]: exhibited activity | activity against BAW (percent mortality, averaged over eight wells) [2]: exhibited activity

O=C(COCC(F)(F)F)Nc1c(F)ccc(NC(=O)[C@H]2[C@H](c3ccc(F)c(C(F)(F)F)c3)C2(Cl)Cl)c1F (racemic) [F95, trans-rac-2,2-Dichloro-N-(2,4-difluoro-3-(2-(2,2,2-trifluoroethoxy)acetamido)phenyl)-3-(4-fluoro-3-(trifluoromethyl)phenyl)cyclopropane-1-carboxamide]
activity against YFM (scored based on mortality) [1]: exhibited activity | activity against BAW (percent mortality, averaged over eight wells) [2]: exhibited activity

O=C(Nc1cc(NC(=O)[C@H]2[C@H](c3ccc(F)c(C(F)(F)F)c3)C2(Cl)Cl)ccc1Cl)c1ccc(NC(=O)C(F)F)cc1F (racemic) [F111, trans-rac-N-(2-Chloro-5-(2,2-dichloro-3-(4-fluoro-3-(trifluoromethyl)phenyl)cyclopropane-1-carboxamido)phenyl)-4-(2,2-difluoroacetamido)-2-fluorobenzamide]
activity against YFM (scored based on mortality) [1]: exhibited activity | activity against BAW (percent mortality, averaged over eight wells) [2]: exhibited activity

O=C(Nc1cc(NC(=O)[C@H]2[C@H](c3ccc(F)c(C(F)(F)F)c3)C2(Cl)Cl)ccc1Cl)c1ccc(NC(=O)C(F)(F)F)cc1F (racemic) [F112, trans-rac-N-(2-Chloro-5-(2,2-dichloro-3-(4-fluoro-3-(trifluoromethyl)phenyl)cyclopropane-1-carboxamido)phenyl)-2-fluoro-4-(2,2,2-trifluoroacetamido)benzamide]
activity against YFM (scored based on mortality) [1]: exhibited activity | activity against BAW (percent mortality, averaged over eight wells) [2]: exhibited activity

CC(=O)Nc1ccc(C(=O)Nc2cc(NC(=O)[C@H]3[C@H](c4ccc(F)c(C(F)(F)F)c4)C3(Cl)Cl)ccc2Cl)c(C)c1F (racemic) [F113, trans-rac-4-Acetamido-N-(2-chloro-5-(2,2-dichloro-3-(4-fluoro-3-(trifluoromethyl)phenyl)cyclopropane-1-carboxamido)phenyl)-3-fluoro-2-methylbenzamide]
activity against YFM (scored based on mortality) [1]: exhibited activity | activity against BAW (percent mortality, averaged over eight wells) [2]: exhibited activity

Cc1c(C(=O)Nc2cc(NC(=O)[C@H]3[C@H](c4ccc(F)c(C(F)(F)F)c4)C3(Cl)Cl)ccc2Cl)ccc(NC(=O)CC(F)(F)F)c1F (racemic) [F114, trans-rac-N-(2-Chloro-5-(2,2-dichloro-3-(4-fluoro-3-(trifluoromethyl)phenyl)cyclopropane-1-carboxamido)phenyl)-3-fluoro-2-methyl-4-(3,3,3-trifluoropropanamido)benzamide]
activity against YFM (scored based on mortality) [1]: exhibited activity | activity against BAW (percent mortality, averaged over eight wells) [2]: exhibited activity

COCC(=O)Nc1ccc(C(=O)Nc2cc(NC(=O)[C@H]3[C@H](c4ccc(F)c(C(F)(F)F)c4)C3(Cl)Cl)ccc2Cl)c(C)c1F (racemic) [F115, trans-rac-N-(2-Chloro-5-(2,2-dichloro-3-(4-fluoro-3-(trifluoromethyl)phenyl)cyclopropane-1-carboxamido)phenyl)-3-fluoro-4-(2-methoxyacetamido)-2-methylbenzamide]
activity against YFM (scored based on mortality) [1]: exhibited activity | activity against BAW (percent mortality, averaged over eight wells) [2]: exhibited activity

Cc1c(C(=O)Nc2cc(NC(=O)[C@H]3[C@H](c4ccc(F)c(C(F)(F)F)c4)C3(Cl)Cl)ccc2Cl)ccc(NC(=O)COCC(F)(F)F)c1F (racemic) [F116, trans-rac-N-(2-Chloro-5-(2,2-dichloro-3-(4-fluoro-3-(trifluoromethyl)phenyl)cyclopropane-1-carboxamido)phenyl)-3-fluoro-2-methyl-4-(2-(2,2,2-trifluoroethoxy)acetamido)benzamide]
activity against YFM (scored based on mortality) [1]: exhibited activity | activity against BAW (percent mortality, averaged over eight wells) [2]: exhibited activity

CC(=O)Nc1ccc(C(=O)Nc2cc(NC(=O)[C@H]3[C@H](c4ccc(F)c(C(F)(F)F)c4)C3(Cl)Cl)ccc2Cl)c(F)c1 (racemic) [F117, trans-rac-4-Acetamido-N-(2-chloro-5-(2,2-dichloro-3-(4-fluoro-3-(trifluoromethyl)phenyl)cyclopropane-1-carboxamido)phenyl)-2-fluorobenzamide]
activity against YFM (scored based on mortality) [1]: exhibited activity | activity against BAW (percent mortality, averaged over eight wells) [2]: exhibited activity

COCC(=O)Nc1ccc(C(=O)Nc2cc(NC(=O)[C@H]3[C@H](c4ccc(F)c(C(F)(F)F)c4)C3(Cl)Cl)ccc2Cl)c(F)c1 (racemic) [F118, trans-rac-N-(2-Chloro-5-(2,2-dichloro-3-(4-fluoro-3-(trifluoromethyl)phenyl)cyclopropane-1-carboxamido)phenyl)-2-fluoro-4-(2-methoxyacetamido)benzamide]
activity against YFM (scored based on mortality) [1]: exhibited activity | activity against BAW (percent mortality, averaged over eight wells) [2]: exhibited activity

O=C(Nc1c(F)ccc(NC(=O)[C@H]2[C@H](c3cc(Cl)c(Cl)c(Cl)c3)C2(Cl)Cl)c1F)c1ccc(F)cc1F [F10, N-(3-((1R,3R)-2,2-dichloro-3-(3,4,5-trichlorophenyl)cyclopropane-1-carboxamido)-2,6-difluorophenyl)-2,4-difluorobenzamide]
activity against YFM (scored based on mortality) [1]: exhibited activity | activity against BAW (percent mortality, averaged over eight wells) [2]: exhibited activity

O=C(Nc1c(F)ccc(NC(=O)[C@H]2[C@H](c3cc(Cl)c(Cl)c(Cl)c3)C2(Cl)Cl)c1F)C1CCCO1 (stereo partly drawn) [F11, N-(3-((1R,3R)-2,2-Dichloro-3-(3,4,5-trichlorophenyl)cyclopropane-1-carboxamido)-2,6-difluorophenyl)tetrahydrofuran-2-carboxamide]
activity against YFM (scored based on mortality) [1]: exhibited activity | activity against BAW (percent mortality, averaged over eight wells) [2]: exhibited activity

CCCC(=O)Nc1c(F)ccc(NC(=O)[C@H]2[C@H](c3cc(Cl)c(Cl)c(Cl)c3)C2(Cl)Cl)c1F [F14, (1R,3R)—N-(3-Butyramido-2,4-difluorophenyl)-2,2-dichloro-3-(3,4,5-trichlorophenyl)cyclopropane-1-carboxamide]
activity against YFM (scored based on mortality) [1]: exhibited activity | activity against BAW (percent mortality, averaged over eight wells) [2]: exhibited activity

CC(CC(=O)Nc1cccc(NC(=O)[C@H]2[C@H](c3cc(Cl)cc(Cl)c3)C2(Cl)Cl)c1F)C(F)(F)F (stereo partly drawn) [F15, (1R,3R)-2,2-Dichloro-3-(3,5-dichlorophenyl)-N-(2-fluoro-3-(4,4,4-trifluoro-3-methylbutanamido)phenyl)cyclopropane-1-carboxamide]
activity against YFM (scored based on mortality) [1]: exhibited activity | activity against BAW (percent mortality, averaged over eight wells) [2]: exhibited activity

O=C(Nc1cccc(NC(=O)[C@H]2[C@H](c3cc(Cl)cc(Cl)c3)C2(Cl)Cl)c1F)c1ccc(F)cc1F [F16, N-(3-((1R,3R)-2,2-Dichloro-3-(3,5-dichlorophenyl)cyclopropane-1-carboxamido)-2-fluorophenyl)-2,4-difluorobenzamide]
activity against YFM (scored based on mortality) [1]: exhibited activity | activity against BAW (percent mortality, averaged over eight wells) [2]: exhibited activity

CCOC(C)C(=O)Nc1cccc(NC(=O)[C@H]2[C@H](c3cc(Cl)cc(Cl)c3)C2(Cl)Cl)c1F (stereo partly drawn) [F18, (1R,3R)-2,2-Dichloro-3-(3,5-dichlorophenyl)-N-(3-(2-ethoxypropanamido)-2-fluorophenyl)cyclopropane-1-carboxamide]
activity against YFM (scored based on mortality) [1]: exhibited activity | activity against BAW (percent mortality, averaged over eight wells) [2]: exhibited activity

O=C(Nc1cccc(NC(=O)C(F)(F)C(F)(F)C(F)(F)F)c1F)[C@H]1[C@H](c2cc(Cl)cc(Cl)c2)C1(Cl)Cl [F19, (1R,3R)-2,2-Dichloro-3-(3,5-dichlorophenyl)-N-(2-fluoro-3-(2,2,3,3,4,4,4-heptafluorobutanamido)phenyl)cyclopropane-1-carboxamide]
activity against YFM (scored based on mortality) [1]: exhibited activity | activity against BAW (percent mortality, averaged over eight wells) [2]: exhibited activity
